Assay results published in patent US20150065416A1, “NOVEL DRUG COMBINATION” (FAB PHARMA SAS, priority 2013, published 2015).

What was measured:
A. baumannii SAN-94040 = assay: Additional mouse model of A. baumannii pneumonia (Example 7): survival; type: in vivo, Acinetobacter baumannii
Experimental: The bacterial inoculum was prepared in order to obtain a suspension containing 10^8 CFU/mL of Acinetobacter baumannii in saline, unless indicated otherwise.
Experimentations were performed with six-week old female C3H/HeN mice (18-20 g, Harlan Laboratories) because of their particular susceptibility to Acinetobacter baumannii. Each mouse was individually marked and housed in cages containing five animals/cage under ventilated and controlled (temperature and humidity) atmosphere.
The mice were rendered transiently neutropenic by 2 intra-peritoneal (IP) injections of 150 μL of cyclophosphamide (150 mg/kg) 4 (D-4) and 3 (D-3) days before the Acinetobacter baumannii inoculation (Day 0).
Mice were infected with 50 μL the prepared bacterial suspension (inoculums depending on experiment) via intra-tracheal inoculation of mouse. In the study, three animals (Group 1) were sacrificed after inoculation to determine bacterial burden in lungs at the time of infection. Lungs were aseptically removed, weighed and homogenized in 1 mL of 0.9% NaCl. Homogenates were serially diluted and plated on TSA agar. Plates were incubated overnight at 37° C. in 5% CO2. Following incubation, colonies were counted for bacterial growth.
Animal survival was assessed every day for 7 days. Survival data were tabulated and a Probit analysis performed to determine the 50% protective dose (PD50) for each group.
The aim of this experiment was to assess the survival rate of transiently neutropenic female C3H/HeN mice administered, 3 hours post-inoculation of A. baumannii SAN-94040 via intra-tracheal route, with compound (I) via intra-peritoneal route at 200 mg/kg 3 times daily (every 8 hours) for 1 day alone and in combination with meropenem at 30 mg/kg 3 times daily (every 8 hours) for 1 day.

[1] = system: Staphylococcus aureus (MSSA, MRSA, VISA, VRSA); settings: VISA and VRSA strains; cited from earlier work
[2] = system: MSSA, MRSA and VISA infections; settings: murine model; cited from earlier work
S. aureus = settings: healthy human volunteers, Phase I study; cited from earlier work
[3] = Example 7, 24 h after SAN-94040 infection, compound (I) 200 mg/kg, meropenem 30 mg/kg, colistin 125000 UI/kg Q8h I.P. for 1 day
[4] = Example 7, 24 h after infection, doses as E246
[5] = Example 7, 48 h after infection, doses as E246
[6] = Example 7, 72 h after infection, doses as E246
[7] = Example 7, 96 h after infection, doses as E246

| SMILES | No. of survivors (A. baumannii SAN-94040; [3]) | survivors (%) (A. baumannii SAN-94040; [4]) | No. of survivors (A. baumannii SAN-94040; [5]) | survivors (%) (A. baumannii SAN-94040; [5]) | No. of survivors (A. baumannii SAN-94040; [6]) | survivors (%) (A. baumannii SAN-94040; [6]) | No. of survivors (A. baumannii SAN-94040; [7]) | survivors (%) (A. baumannii SAN-94040; [7]) | survival rate (A. baumannii SAN-94040; Example 7, text, time not stated) [%] | in vitro activity [1] | in vivo activity [2] | ex vivo activity (S. aureus) |
| --- | --- | --- | --- | --- | --- | --- | --- | --- | --- | --- | --- | --- |
| CCc1cc(O)c(Oc2ccc(C(N)=O)cc2F)cc1F [compound (I), 4-(4-ethyl-5-fluoro-2-hydroxyphenoxy)-3-fluorobenzamide] | 10 | 100 | 8 | 80 | 6 | 60 | 6 | 60 | 60 | highly active | active in vivo | ex vivo bactericidal activity |
| C[C@@H](O)[C@H]1C(=O)N2C(C(=O)O)=C(S[C@@H]3CN[C@H](C(=O)N(C)C)C3)[C@H](C)[C@H]12 [meropenem] | 10 | 100 | 10 | 100 | 10 | 100 | 10 | 100 | – | – | – | – |
